Assay results reported in patent US12528811B2, “Substituted cyclopenta[2,1-b:5,1-b’]dipyrroles as Janus kinase (JAK) inhibitors” (UNIVERSITÄT BERN, priority 2019, dated 2026).

How the values were obtained:
Assay type in all cases: biochemical
JAK2 = JAK2 (Homo sapiens, UniProt O60674); assay: JAK2 enzymatic kinase inhibition assay; conditions: read-out: Kinase inhibitory activities given in IC50 (nM), JAK2
TYK2 = TYK2 (Homo sapiens, UniProt P29597); assay: TYK2 enzymatic kinase inhibition assay; conditions: read-out: Kinase inhibitory activities given in IC50 (nM), TYK2
Chain of TYK2 (P29597 whole entry): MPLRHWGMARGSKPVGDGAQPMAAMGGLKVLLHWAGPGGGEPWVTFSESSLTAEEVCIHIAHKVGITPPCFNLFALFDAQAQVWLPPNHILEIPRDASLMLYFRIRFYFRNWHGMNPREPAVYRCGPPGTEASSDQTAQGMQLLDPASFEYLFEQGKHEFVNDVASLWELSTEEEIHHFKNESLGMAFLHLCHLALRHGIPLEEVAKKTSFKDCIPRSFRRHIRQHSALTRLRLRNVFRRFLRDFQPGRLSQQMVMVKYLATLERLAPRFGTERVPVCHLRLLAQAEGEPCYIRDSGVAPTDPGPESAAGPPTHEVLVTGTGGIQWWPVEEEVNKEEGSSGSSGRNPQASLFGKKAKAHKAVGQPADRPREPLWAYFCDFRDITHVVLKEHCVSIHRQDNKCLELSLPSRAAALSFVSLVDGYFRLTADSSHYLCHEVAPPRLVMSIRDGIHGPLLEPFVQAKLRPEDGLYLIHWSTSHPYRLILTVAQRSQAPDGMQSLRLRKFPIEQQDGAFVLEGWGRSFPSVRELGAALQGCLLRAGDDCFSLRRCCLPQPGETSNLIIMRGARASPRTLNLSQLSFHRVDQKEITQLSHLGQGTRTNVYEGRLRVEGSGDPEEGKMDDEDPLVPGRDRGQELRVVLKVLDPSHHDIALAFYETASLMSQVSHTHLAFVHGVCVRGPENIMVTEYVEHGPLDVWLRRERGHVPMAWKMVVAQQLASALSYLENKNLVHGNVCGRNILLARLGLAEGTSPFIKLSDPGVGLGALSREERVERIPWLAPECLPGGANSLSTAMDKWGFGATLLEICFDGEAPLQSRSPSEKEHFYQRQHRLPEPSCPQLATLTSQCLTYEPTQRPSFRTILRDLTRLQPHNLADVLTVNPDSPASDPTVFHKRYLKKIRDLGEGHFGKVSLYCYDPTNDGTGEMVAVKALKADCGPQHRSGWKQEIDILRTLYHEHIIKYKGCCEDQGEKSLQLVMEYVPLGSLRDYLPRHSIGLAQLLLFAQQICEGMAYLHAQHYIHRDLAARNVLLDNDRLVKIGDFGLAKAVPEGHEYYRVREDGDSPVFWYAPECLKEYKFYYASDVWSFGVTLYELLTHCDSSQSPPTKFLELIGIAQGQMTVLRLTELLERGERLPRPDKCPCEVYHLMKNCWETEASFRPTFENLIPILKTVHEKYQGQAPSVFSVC

JAK1 = JAK1 (Homo sapiens, UniProt P23458); assay: JAK1 enzymatic kinase inhibition assay; conditions: read-out: Kinase inhibitory activities given in IC50 (nM), JAK1
Chain of JAK1 (P23458 whole entry): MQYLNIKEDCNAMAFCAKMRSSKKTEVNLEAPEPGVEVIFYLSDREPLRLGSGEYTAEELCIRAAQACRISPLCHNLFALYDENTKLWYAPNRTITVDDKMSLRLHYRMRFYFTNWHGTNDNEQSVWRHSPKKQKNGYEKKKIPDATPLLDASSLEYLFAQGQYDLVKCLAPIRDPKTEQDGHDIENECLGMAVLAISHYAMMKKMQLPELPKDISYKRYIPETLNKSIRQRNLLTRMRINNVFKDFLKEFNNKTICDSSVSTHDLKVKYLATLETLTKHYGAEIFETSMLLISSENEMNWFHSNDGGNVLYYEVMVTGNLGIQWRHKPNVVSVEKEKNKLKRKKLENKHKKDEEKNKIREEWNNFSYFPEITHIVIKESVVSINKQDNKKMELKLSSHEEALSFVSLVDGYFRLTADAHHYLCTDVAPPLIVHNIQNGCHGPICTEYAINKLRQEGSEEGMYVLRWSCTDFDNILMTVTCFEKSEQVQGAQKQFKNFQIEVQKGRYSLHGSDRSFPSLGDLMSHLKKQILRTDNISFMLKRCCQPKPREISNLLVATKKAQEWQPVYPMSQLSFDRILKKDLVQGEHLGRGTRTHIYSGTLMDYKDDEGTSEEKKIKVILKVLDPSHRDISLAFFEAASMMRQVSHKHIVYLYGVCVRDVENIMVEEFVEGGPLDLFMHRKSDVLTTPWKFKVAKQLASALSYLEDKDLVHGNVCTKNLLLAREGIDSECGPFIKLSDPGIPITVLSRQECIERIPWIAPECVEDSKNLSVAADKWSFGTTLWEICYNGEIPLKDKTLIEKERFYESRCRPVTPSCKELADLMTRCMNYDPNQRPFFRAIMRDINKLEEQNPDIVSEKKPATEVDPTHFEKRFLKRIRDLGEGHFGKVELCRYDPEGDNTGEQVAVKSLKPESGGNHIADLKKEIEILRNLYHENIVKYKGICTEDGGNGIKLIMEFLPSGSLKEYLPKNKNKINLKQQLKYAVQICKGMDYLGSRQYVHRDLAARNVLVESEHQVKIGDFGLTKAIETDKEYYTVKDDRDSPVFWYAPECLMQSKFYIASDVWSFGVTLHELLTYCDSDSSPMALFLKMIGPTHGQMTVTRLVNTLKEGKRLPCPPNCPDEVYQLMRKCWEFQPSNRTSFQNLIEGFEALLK

JAK3 = molecular target: T1, JAK3 (Homo sapiens, UniProt P52333); assay: JAK3 enzymatic kinase inhibition assay; conditions: read-out: Kinase inhibitory activities given in IC50 (nM), JAK3
T1 sequence (P52333 1-1124): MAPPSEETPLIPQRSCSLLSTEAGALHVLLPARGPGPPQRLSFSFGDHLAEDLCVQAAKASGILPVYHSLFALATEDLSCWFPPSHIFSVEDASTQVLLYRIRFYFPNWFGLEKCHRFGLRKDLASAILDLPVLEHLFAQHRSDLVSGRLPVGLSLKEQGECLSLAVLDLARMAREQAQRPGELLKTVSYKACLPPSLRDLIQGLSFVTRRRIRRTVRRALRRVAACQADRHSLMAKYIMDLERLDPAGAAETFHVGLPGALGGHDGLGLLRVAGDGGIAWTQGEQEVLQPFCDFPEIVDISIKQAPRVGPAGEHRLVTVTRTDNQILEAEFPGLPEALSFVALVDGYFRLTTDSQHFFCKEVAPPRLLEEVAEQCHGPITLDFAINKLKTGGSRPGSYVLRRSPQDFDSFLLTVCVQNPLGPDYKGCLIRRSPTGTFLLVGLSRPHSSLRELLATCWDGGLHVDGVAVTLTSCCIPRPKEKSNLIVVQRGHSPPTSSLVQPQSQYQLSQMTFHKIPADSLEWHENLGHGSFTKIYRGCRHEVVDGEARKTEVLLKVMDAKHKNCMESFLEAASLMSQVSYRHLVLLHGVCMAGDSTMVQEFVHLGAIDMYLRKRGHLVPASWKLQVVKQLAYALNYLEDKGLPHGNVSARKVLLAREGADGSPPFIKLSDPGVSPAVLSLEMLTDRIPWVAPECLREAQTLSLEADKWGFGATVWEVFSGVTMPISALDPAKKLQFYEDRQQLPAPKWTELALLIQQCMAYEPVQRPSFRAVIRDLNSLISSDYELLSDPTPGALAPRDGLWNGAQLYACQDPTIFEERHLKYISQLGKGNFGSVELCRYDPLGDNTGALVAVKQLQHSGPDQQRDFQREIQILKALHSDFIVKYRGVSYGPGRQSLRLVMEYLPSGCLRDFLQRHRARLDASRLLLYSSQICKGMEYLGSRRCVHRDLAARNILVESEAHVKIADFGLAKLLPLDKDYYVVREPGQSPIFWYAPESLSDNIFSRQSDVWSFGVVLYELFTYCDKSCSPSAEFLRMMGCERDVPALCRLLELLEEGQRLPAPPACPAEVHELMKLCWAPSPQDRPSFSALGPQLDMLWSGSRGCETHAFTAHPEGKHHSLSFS

Chain of JAK2 (O60674 whole entry): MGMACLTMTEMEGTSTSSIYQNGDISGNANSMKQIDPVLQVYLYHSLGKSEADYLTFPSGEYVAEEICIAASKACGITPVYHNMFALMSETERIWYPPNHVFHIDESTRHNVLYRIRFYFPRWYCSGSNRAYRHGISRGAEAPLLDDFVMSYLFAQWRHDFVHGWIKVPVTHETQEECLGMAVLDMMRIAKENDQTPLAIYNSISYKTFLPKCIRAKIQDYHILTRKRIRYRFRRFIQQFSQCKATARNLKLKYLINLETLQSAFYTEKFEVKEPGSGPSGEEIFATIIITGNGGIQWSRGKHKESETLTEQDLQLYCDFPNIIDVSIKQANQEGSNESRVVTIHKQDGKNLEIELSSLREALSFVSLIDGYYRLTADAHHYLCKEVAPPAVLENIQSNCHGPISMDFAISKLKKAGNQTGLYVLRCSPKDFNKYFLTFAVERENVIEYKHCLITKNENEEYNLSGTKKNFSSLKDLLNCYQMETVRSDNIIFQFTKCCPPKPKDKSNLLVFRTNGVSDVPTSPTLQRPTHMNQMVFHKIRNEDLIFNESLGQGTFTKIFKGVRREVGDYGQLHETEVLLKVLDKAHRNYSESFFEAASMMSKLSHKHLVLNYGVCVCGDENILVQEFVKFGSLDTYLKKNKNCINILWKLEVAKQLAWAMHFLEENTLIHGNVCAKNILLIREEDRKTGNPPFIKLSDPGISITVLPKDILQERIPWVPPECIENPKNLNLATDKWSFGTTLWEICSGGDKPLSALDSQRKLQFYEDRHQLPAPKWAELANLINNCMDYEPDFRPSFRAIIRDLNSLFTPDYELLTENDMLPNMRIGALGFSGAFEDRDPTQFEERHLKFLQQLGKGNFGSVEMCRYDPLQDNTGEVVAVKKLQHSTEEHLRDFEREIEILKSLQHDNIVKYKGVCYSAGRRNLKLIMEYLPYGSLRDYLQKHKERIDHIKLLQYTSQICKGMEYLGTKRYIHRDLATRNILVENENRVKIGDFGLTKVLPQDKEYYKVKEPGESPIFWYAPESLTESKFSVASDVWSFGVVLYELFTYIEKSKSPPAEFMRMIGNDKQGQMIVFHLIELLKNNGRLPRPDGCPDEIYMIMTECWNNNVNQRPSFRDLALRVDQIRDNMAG

Compound `C=CC(=O)N1CCC23CCN(c4ncnc5[nH]ccc45)C2CCC13` (centres unmarked) [KMC423, 1-(6-(7H-pyrrolo[2,3-d]pyrimidin-4-yl)octahydrocyclopenta[2,1-b:5,1-b′]dipyrrol-3(3aH)-yl)prop-2-en-1-one] has an IC50 (JAK2) of 53 nM, an IC50 (TYK2) of 183 nM and an IC50 (JAK1) of 30 nM. The IC50 (JAK3) was 9 nM.

`N#CCC(=O)N1CCC23CCN(c4ncnc5[nH]ccc45)C2CCC13` (centres unmarked) [KMC420, 3-(6-(7H-pyrrolo[2,3-d]pyrimidin-4-yl)octahydrocyclopenta[2,1-b:5,1-b′]dipyrrol-3(3aH)-yl)-3-oxopropanenitrile] showed an IC50 (JAK2) of 13 nM, an IC50 (TYK2) of 26 nM and an IC50 (JAK1) of 1 nM. The IC50 (JAK3) was 29 nM.
